From PubChem BioAssay (NCI)
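Cells were grown in 96-well plates and exposed to each compound for 48 hours at five concentrations; endpoints were interpolated linearly between bracketing concentrations, or set to the highest concentration if not reached. TGI: concentration producing complete growth inhibition.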

Experiments:
Test in all cases: NCI tumour cell line growth inhibition, 48 h
SK-MEL-28 melanoma = system: SK-MEL-28 melanoma
NCI/ADR-RES ovarian = system: NCI/ADR-RES ovarian
IGROV1 ovarian = system: IGROV1 ovarian
NCI-H226 lung = system: NCI-H226 lung
NCI-H460 lung = system: NCI-H460 lung
T-47D breast = system: T-47D breast
A498 renal = system: A498 renal
K-562 leukemia = system: K-562 leukemia
SNB-75 CNS = system: SNB-75 CNS
OVCAR-3 ovarian = system: OVCAR-3 ovarian
MDA-MB-435 = system: MDA-MB-435
A549 NSCLC = system: A549 NSCLC
MOLT-4 leukemia = system: MOLT-4 leukemia
LOX IMVI melanoma = system: LOX IMVI melanoma
BT-549 breast = system: BT-549 breast
CAKI-1 renal = system: CAKI-1 renal
OVCAR-5 ovarian = system: OVCAR-5 ovarian
OVCAR-4 ovarian = system: OVCAR-4 ovarian
SK-OV-3 ovarian = system: SK-OV-3 ovarian
UACC-62 melanoma = system: UACC-62 melanoma
SF-295 CNS = system: SF-295 CNS
KM12 colon = system: KM12 colon
PC-3 prostate = system: PC-3 prostate
UACC-257 melanoma = system: UACC-257 melanoma
HCT-116 colon = system: HCT-116 colon
SR leukemia = system: SR leukemia
SK-MEL-2 melanoma = system: SK-MEL-2 melanoma
RXF 393 renal = system: RXF 393 renal
DU-145 prostate = system: DU-145 prostate
HCT-15 colon = system: HCT-15 colon
UO-31 renal = system: UO-31 renal
SK-MEL-5 melanoma = system: SK-MEL-5 melanoma
HOP-92 NSCLC = system: HOP-92 NSCLC
MALME-3M melanoma = system: MALME-3M melanoma
786-0 renal = system: 786-0 renal
SF-268 CNS = system: SF-268 CNS
SW-620 colon = system: SW-620 colon
EKVX NSCLC = system: EKVX NSCLC
M14 melanoma = system: M14 melanoma
NCI-H23 lung = system: NCI-H23 lung
ACHN renal = system: ACHN renal
TK-10 renal = system: TK-10 renal
RPMI-8226 leukemia = system: RPMI-8226 leukemia
U251 CNS = system: U251 CNS
SN12C renal = system: SN12C renal
OVCAR-8 ovarian = system: OVCAR-8 ovarian
SNB-19 CNS = system: SNB-19 CNS
MDA-N = system: MDA-N
HT29 colon = system: HT29 colon
HS 578T breast = system: HS 578T breast
MDA-MB-231 breast = system: MDA-MB-231 breast
NCI-H522 lung = system: NCI-H522 lung
CCRF-CEM leukemia = system: CCRF-CEM leukemia
HL-60(TB) leukemia = system: HL-60(TB) leukemia
MCF7 breast = system: MCF7 breast
SF-539 CNS = system: SF-539 CNS
COLO 205 colon = system: COLO 205 colon
HOP-62 NSCLC = system: HOP-62 NSCLC

NS(=O)(=O)c1ccc(N=Nc2c[nH]c(=O)c(O)c2)cc1
TGI (SK-MEL-28 melanoma): > 100 µM
TGI (NCI/ADR-RES ovarian): > 100 µM
TGI (IGROV1 ovarian): > 100 µM
TGI (NCI-H226 lung): > 100 µM
TGI (NCI-H460 lung): > 100 µM
TGI (T-47D breast): > 100 µM
TGI (A498 renal): > 100 µM
TGI (K-562 leukemia): > 100 µM
TGI (SNB-75 CNS): > 100 µM
TGI (OVCAR-3 ovarian): 82.6 µM
TGI (MDA-MB-435): > 100 µM
TGI (A549 NSCLC): > 100 µM
TGI (MOLT-4 leukemia): > 100 µM
TGI (LOX IMVI melanoma): > 100 µM
TGI (BT-549 breast): > 100 µM
TGI (CAKI-1 renal): > 100 µM
TGI (OVCAR-5 ovarian): > 100 µM
TGI (OVCAR-4 ovarian): > 100 µM
TGI (SK-OV-3 ovarian): > 100 µM
TGI (UACC-62 melanoma): > 100 µM
TGI (SF-295 CNS): > 100 µM
TGI (KM12 colon): > 100 µM
TGI (PC-3 prostate): > 100 µM
TGI (UACC-257 melanoma): > 100 µM
TGI (HCT-116 colon): > 100 µM
TGI (SR leukemia): > 100 µM
TGI (SK-MEL-2 melanoma): > 100 µM
TGI (RXF 393 renal): > 100 µM
TGI (DU-145 prostate): > 100 µM
TGI (HCT-15 colon): > 100 µM
TGI (UO-31 renal): > 100 µM
TGI (SK-MEL-5 melanoma): > 100 µM
TGI (HOP-92 NSCLC): > 100 µM
TGI (MALME-3M melanoma): 82.4 µM
TGI (786-0 renal): > 100 µM
TGI (SF-268 CNS): > 100 µM
TGI (SW-620 colon): > 100 µM
TGI (EKVX NSCLC): > 100 µM
TGI (M14 melanoma): > 100 µM
TGI (NCI-H23 lung): > 100 µM
TGI (ACHN renal): > 100 µM
TGI (TK-10 renal): > 100 µM
TGI (RPMI-8226 leukemia): > 100 µM
TGI (U251 CNS): 46.3 µM
TGI (SN12C renal): > 100 µM
TGI (OVCAR-8 ovarian): > 100 µM
TGI (SNB-19 CNS): > 100 µM
TGI (MDA-N): > 100 µM
TGI (HT29 colon): > 100 µM
TGI (HS 578T breast): > 100 µM
TGI (MDA-MB-231 breast): > 100 µM
TGI (NCI-H522 lung): 28.6 µM
TGI (CCRF-CEM leukemia): 44.1 µM
TGI (HL-60(TB) leukemia): > 100 µM
TGI (MCF7 breast): > 100 µM
TGI (SF-539 CNS): > 100 µM
TGI (COLO 205 colon): > 100 µM
TGI (HOP-62 NSCLC): > 100 µM

Cc1[nH]c2nccn2c(=O)c1CCO
TGI (SK-MEL-28 melanoma): > 10 µM
TGI (NCI/ADR-RES ovarian): > 10 µM
TGI (IGROV1 ovarian): > 10 µM
TGI (NCI-H226 lung): > 10 µM
TGI (NCI-H460 lung): > 10 µM
TGI (T-47D breast): > 10 µM
TGI (A498 renal): > 10 µM
TGI (K-562 leukemia): > 10 µM
TGI (SNB-75 CNS): > 10 µM
TGI (OVCAR-3 ovarian): > 10 µM
TGI (MDA-MB-435): > 10 µM
TGI (A549 NSCLC): > 10 µM
TGI (MOLT-4 leukemia): > 10 µM
TGI (LOX IMVI melanoma): > 10 µM
TGI (BT-549 breast): > 10 µM
TGI (CAKI-1 renal): > 10 µM
TGI (OVCAR-5 ovarian): > 10 µM
TGI (OVCAR-4 ovarian): > 10 µM
TGI (SK-OV-3 ovarian): > 10 µM
TGI (UACC-62 melanoma): > 10 µM
TGI (SF-295 CNS): > 10 µM
TGI (KM12 colon): > 10 µM
TGI (PC-3 prostate): > 10 µM
TGI (UACC-257 melanoma): > 10 µM
TGI (HCT-116 colon): > 10 µM
TGI (SR leukemia): > 10 µM
TGI (RXF 393 renal): > 10 µM
TGI (DU-145 prostate): > 10 µM
TGI (HCT-15 colon): > 10 µM
TGI (UO-31 renal): > 10 µM
TGI (SK-MEL-5 melanoma): > 10 µM
TGI (HOP-92 NSCLC): > 10 µM
TGI (MALME-3M melanoma): > 10 µM
TGI (786-0 renal): > 10 µM
TGI (SF-268 CNS): > 10 µM
TGI (SW-620 colon): > 10 µM
TGI (EKVX NSCLC): > 10 µM
TGI (M14 melanoma): > 10 µM
TGI (NCI-H23 lung): > 10 µM
TGI (ACHN renal): > 10 µM
TGI (TK-10 renal): > 10 µM
TGI (RPMI-8226 leukemia): > 10 µM
TGI (U251 CNS): > 10 µM
TGI (SN12C renal): > 10 µM
TGI (OVCAR-8 ovarian): > 10 µM
TGI (SNB-19 CNS): > 10 µM
TGI (MDA-N): > 10 µM
TGI (HT29 colon): > 10 µM
TGI (HS 578T breast): > 10 µM
TGI (MDA-MB-231 breast): > 10 µM
TGI (CCRF-CEM leukemia): > 10 µM
TGI (HL-60(TB) leukemia): > 10 µM
TGI (MCF7 breast): > 10 µM
TGI (SF-539 CNS): > 10 µM
TGI (COLO 205 colon): > 10 µM
TGI (HOP-62 NSCLC): > 10 µM

CC1CN(CCO)CCN1c1ccccc1 (stereo unspecified)
TGI (SK-MEL-28 melanoma): > 100 µM
TGI (NCI/ADR-RES ovarian): > 100 µM
TGI (IGROV1 ovarian): > 100 µM
TGI (NCI-H226 lung): > 100 µM
TGI (NCI-H460 lung): > 100 µM
TGI (T-47D breast): > 100 µM
TGI (A498 renal): > 100 µM
TGI (K-562 leukemia): > 100 µM
TGI (SNB-75 CNS): > 100 µM
TGI (OVCAR-3 ovarian): > 100 µM
TGI (MDA-MB-435): > 100 µM
TGI (A549 NSCLC): > 100 µM
TGI (MOLT-4 leukemia): > 100 µM
TGI (LOX IMVI melanoma): > 100 µM
TGI (BT-549 breast): > 100 µM
TGI (CAKI-1 renal): > 100 µM
TGI (OVCAR-5 ovarian): > 100 µM
TGI (OVCAR-4 ovarian): > 100 µM
TGI (SK-OV-3 ovarian): > 100 µM
TGI (UACC-62 melanoma): > 100 µM
TGI (SF-295 CNS): > 100 µM
TGI (KM12 colon): > 100 µM
TGI (PC-3 prostate): > 100 µM
TGI (UACC-257 melanoma): > 100 µM
TGI (HCT-116 colon): > 100 µM
TGI (SR leukemia): > 100 µM
TGI (SK-MEL-2 melanoma): > 100 µM
TGI (RXF 393 renal): > 100 µM
TGI (DU-145 prostate): > 100 µM
TGI (HCT-15 colon): > 100 µM
TGI (UO-31 renal): > 100 µM
TGI (SK-MEL-5 melanoma): > 100 µM
TGI (HOP-92 NSCLC): > 100 µM
TGI (MALME-3M melanoma): > 100 µM
TGI (786-0 renal): > 100 µM
TGI (SF-268 CNS): > 100 µM
TGI (SW-620 colon): > 100 µM
TGI (EKVX NSCLC): > 100 µM
TGI (M14 melanoma): > 100 µM
TGI (NCI-H23 lung): > 100 µM
TGI (ACHN renal): > 100 µM
TGI (TK-10 renal): > 100 µM
TGI (RPMI-8226 leukemia): > 100 µM
TGI (U251 CNS): > 100 µM
TGI (SN12C renal): > 100 µM
TGI (OVCAR-8 ovarian): > 100 µM
TGI (SNB-19 CNS): > 100 µM
TGI (MDA-N): > 100 µM
TGI (HT29 colon): > 100 µM
TGI (HS 578T breast): > 100 µM
TGI (MDA-MB-231 breast): > 100 µM
TGI (NCI-H522 lung): > 100 µM
TGI (HL-60(TB) leukemia): 99 µM
TGI (MCF7 breast): > 100 µM
TGI (SF-539 CNS): > 100 µM
TGI (COLO 205 colon): > 100 µM
TGI (HOP-62 NSCLC): > 100 µM
